Test results published in ChEMBL document CHEMBL2448809, “UCSF DeRisi Lab MMV Box Apicoplast Screening”.

What follows are compounds tested on Plasmodium falciparum (assay: MMV: Compounds (1uM) were screened in a 72hr growth assay monitored by flow cytometry both in the presence and absence of supplemental isopentenyl pyrophosphate (IPP) 200uM. Compounds which fail to show anti-malarial activity when chemically rescued by IPP are therefore specific to the apicoplast. The values are expressed as the ratio of the corresponding activity with and without IPP, respectively.).
Type: functional, W2

Structure (SMILES)	Ratio
FC(F)(F)c1ccc(Nc2nnnc3ccccc23)cc1	1.052
CCCCOc1ccc(C(=O)Nc2cc(C)on2)cc1	0.9875
CN(C)CCCNCc1ccc(-c2ccc(F)c(Cl)c2)o1.Cl	0.75
COc1ccc(N2CCN(C(CNC(=O)C3CCCCC3)c3ccc4c(c3)OCO4)CC2)cc1 (configuration not stated)	0.9206
Cc1c(C)n(CC(O)CNC2CCCCC2C)c2ccccc12 (configuration not stated)	0.9649
COc1ccc(C=C2SC(Nc3ccc(F)cc3)=NC2=O)c(OC)c1	0.9324
COc1nc(Nc2ccc(C(C)C)cc2)nc(OC)n1	0.9479
CC1CC2=C(CC1CNCCCN(C)C)C(C)(C)CCC2 (configuration not stated)	0.931
CCCCCCc1cc2cc(-c3csc(C=Cc4ccccc4)n3)c(=O)oc2cc1O	0.86
COc1ccc(-c2nc(NC(=O)CS(=O)(=O)c3ccc(F)cc3)sc2C)cc1	0.8289
COc1cccc(C2(C)Nc3ccccc3-c3nc4ccccc4n32)c1 (configuration not stated)	1.163
CC(C)OCc1cc(CN2CCN(c3cccc(Cl)c3)CC2)c(O)c2ncccc12	1.015
Brc1ccc(Nc2nc3ccccc3nc2Nc2ccc(Br)cc2)cc1	0.8871
CCCCN(CCCC)S(=O)(=O)c1ccc(NC(=O)c2ccco2)cc1	0.8649
CCCCc1c(C)nc2c(OC)cccc2c1O	0.8472
COc1ccc2nc(N)nc(C)c2c1	0.8974
CCOC(=O)C1=C(C)N=c2sc(=Cc3cc(Cl)ccc3O)c(=O)n2C1c1ccc(OC)cc1 (configuration not stated)	1.255
CCCC(c1nnnn1C1CCCCC1)N1CCN(C(=O)c2ccco2)CC1.Cl (configuration not stated)	1.023
Cc1ccccc1OCCSc1nc2ccc(NC(=O)c3ccccc3)cc2s1	0.8842
CC(C)(C)c1ccc(C2CC3=Nc4ccccc4N(C(=O)c4ccccc4Cl)C(c4ccc(F)cc4)C3=C(O)C2)cc1 (configuration not stated)	1
COc1ccc2nc(C)cc(Nc3cccc(O)c3)c2c1.Cl	1.191
O=C(O)C(=O)O.Oc1ccc(Br)cc1CN1CCN(Cc2cccc(F)c2)CC1	0.8333
COc1ccc(CN2CCCC(C(=O)c3ccc(C(F)(F)F)cc3)C2)c(O)c1 (configuration not stated)	0.8852
CCOc1ccc2nc(C)cc(Nc3ccc(Br)cc3)c2c1	1.038
O=C(Nc1ccccc1O)c1ccc(Oc2cccc(C(=O)Nc3ccccc3O)c2)cc1	0.75
COc1cc(-c2nc(-c3ccccc3)c(-c3ccccc3)[nH]2)cc(OC)c1O	1.031

Structure (SMILES)	Ratio
O=C(Nc1ccc(-c2nc3cc4ccccc4cc3[nH]2)cc1)c1cccc(Br)c1	1.254
CC1=C(CC(=O)c2cccc([N+](=O)[O-])c2)C(=O)c2ccccc2C1=O	1.085
CCOc1ccc(-c2nc(NC(=O)c3cccc(S(C)(=O)=O)c3)sc2C)cc1	0.4367
CCc1ccc(Nc2cc(C)c3ccc(O)cc3n2)cc1.Cl	0.7867
COCCN(C(=O)Cc1cccs1)C(C(=O)NCc1ccc(OC)cc1)c1ccc(C(C)C)cc1 (configuration not stated)	0.8315
CCCCCCOC(=O)C1=C(C)NC(=O)NC1c1ccccc1F (configuration not stated)	0.6566
COc1cc2c3cc1Oc1c(OC)c(OC)cc4c1C(Cc1ccc(O)c(c1)Oc1ccc(cc1)CC3N(C)CC2)N(C)CC4.Cl (configuration not stated)	0.95
CCCCc1ccc(NS(=O)(=O)c2cc3c4c(c2)CCN4C(=O)CC3)cc1	0.6295
CCN1CCN(Cc2ccc(NC(=O)c3cc4ccc5cccnc5c4[nH]3)cc2)CC1	1.563
COc1cccc(NC(=O)[C@H](C(C)C)n2c(=O)[nH]c3ccccc3c2=O)c1	0.7619
COc1cc(OC)cc(N2C(=O)N(Cc3ccc(C(C)(C)C)cc3)c3ccccc3S2(=O)=O)c1	0.9143
Cc1nc2ccccc2c(O)c1CC=C(Cl)Cl	1.066
Cc1cc(NC(=O)c2cccc(C(F)(F)F)c2)n(-c2nc(-c3ccc4c(c3)OCO4)cs2)n1	0.8908
FC(F)(F)c1cccc(CNC2CCN(CCc3ccccc3)CC2)c1	0.9344
CCCCCCn1c(=N)n(CC(O)COc2cccc(C)c2)c2ccccc21.Cl (configuration not stated)	0.9831
C=C(C)CCC(C)N1CCC(N2CCC(C(=O)NCCc3ccccc3)CC2)CC1 (configuration not stated)	0.756
Cl.Cn1c(=O)n(C)c2cc(CNCCNc3ccnc4cc(Cl)ccc34)ccc21	1.09
COc1ccc(C2c3ccc4ccccc4c3Oc3ncn(CCCn4ccnc4)c(=N)c32)cc1OC (configuration not stated)	1.051
CNCCCNc1ccnc2cc(Cl)ccc12	0.8333
Nc1nc(Nc2cccc(F)c2)nc2ccccc12	1.176
Cc1sc2ncnc(Sc3nc4ccccc4[nH]3)c2c1C	0.9273
O=C(O)C(=O)O.Oc1ccccc1CN1CCN(C(c2ccccc2)c2ccccc2)CC1	1.068
Cc1cc(Nc2ccc3ccccc3c2)n2ncnc2n1	0.8919
CC(NCc1ccccc1)c1cc(Cl)ccc1O (configuration not stated)	0.6957
O=C(NC1CCCCC1)C(c1cccs1)N(CCc1ccccc1)C(=O)c1ccco1 (configuration not stated)	0.9135
CC(C)(C)c1ccc2c(c1)CN(Cc1ccc(Cl)cc1)CO2	0.8966

Structure (SMILES)	Ratio
O=C(CCc1ccccc1)c1ccccc1OCC(O)CN1CCCCC1 (configuration not stated)	1
O=C(Nc1ccc(CN2CCOCC2)cc1)c1ccc(-c2ccc(Br)cc2)o1	0.6519
Cc1[nH]c(-c2ccc(F)cc2)cc1C(=O)NC1CCN(Cc2ccccc2)CC1	0.8906
O=C(O)C1Cc2c([nH]c3ccccc23)C(c2ccc(Cl)cc2Cl)N1 (configuration not stated)	6.316
COCCn1c(C)nc2ccccc2c1=O	0.9589
Cl.Clc1cc(Br)ccc1-c1ccc(CNCC2CCNCC2)o1	1.173
COc1cc(CNCCc2ccc(Cl)cc2)cc(OC)c1O	0.9459
COc1ccc(-n2ccnc2SCC(=O)Nc2cc(C)ccc2C)c(OC)c1	0.75
CCOC(=O)C1=CN(C)C=C(C(=O)OCC)C1c1cc(Br)c(OCC)c(OC)c1	1.052
Cc1ccc(F)cc1NC(=O)c1cc(Cl)ccc1Nc1ccccc1	1.055
O=C(Nc1ccc(-c2nc3ccccc3[nH]2)cc1)c1ccc(Cl)c(Cl)c1	0.9295
COc1ccccc1CNC(=O)CCn1c(=O)[nH]c2ccsc2c1=O	1.123
OC(Cn1nnc2ccccc21)Cn1c2ccc(Br)cc2c2cc(Br)ccc21 (configuration not stated)	0.9531
CC(=O)NCCc1nc2ccccc2n1Cc1ccc(C(C)C)cc1	1.018
COc1ccc(-c2cc3c(SCC(=O)Nc4cc(C(F)(F)F)ccc4Cl)nccn3n2)cc1	0.9714
O=C(NC1CCN(Cc2ccccc2)CC1)c1cc2nc(-c3ccc(Cl)s3)cc(C(F)(F)F)n2n1	0.6993
CCOC(=O)C1CCN(C(=O)CN2C(=O)c3ccccc3C2c2c[nH]c3ccccc23)CC1 (configuration not stated)	0.6812
COc1ccc(-c2c(C)nn3c(N)c(C#N)cnc23)cc1OC	0.831
O=C(Nc1ccc(-c2nc3cc(NC(=O)c4ccc(Cl)cc4)ccc3[nH]2)cc1)c1ccc(Cl)cc1	0.9036
CC1CCN(Cc2c(O)ccc3cc(-c4nc5ccccc5s4)c(=O)oc23)CC1	1.058
Cc1cccc(-n2ncc3c(O)nc(-n4nc(C)cc4NC(=O)c4cc5ccccc5o4)nc32)c1	0.6055
CN(C)c1ccc(C=Cc2nc(=O)c3ccccc3o2)cc1	0.8302
Cc1ccc(-c2cc3c(nn2)-c2ccccc2C3=O)cc1	0.7253
Fc1ccc2[nH]c3c(NCCCN4CCOCC4)ncnc3c2c1	0.8594
CC(=O)Nc1nnc(SCc2c(C)cc(C(C)(C)C)cc2C)s1	0.8169
